Legend:
[1] = biological target: T1, α1B-1α2bβ1-2 (Homo sapiens, UniProt Q00975, Y99N); type: cell-based
T1 construct: contains, in pcDNA1, a full-length coding region encoding α1B-1; expressed in transfected cells; host or cells: HEK293 cells, transient
Target sequence in this assay (Q00975 whole entry Y99N): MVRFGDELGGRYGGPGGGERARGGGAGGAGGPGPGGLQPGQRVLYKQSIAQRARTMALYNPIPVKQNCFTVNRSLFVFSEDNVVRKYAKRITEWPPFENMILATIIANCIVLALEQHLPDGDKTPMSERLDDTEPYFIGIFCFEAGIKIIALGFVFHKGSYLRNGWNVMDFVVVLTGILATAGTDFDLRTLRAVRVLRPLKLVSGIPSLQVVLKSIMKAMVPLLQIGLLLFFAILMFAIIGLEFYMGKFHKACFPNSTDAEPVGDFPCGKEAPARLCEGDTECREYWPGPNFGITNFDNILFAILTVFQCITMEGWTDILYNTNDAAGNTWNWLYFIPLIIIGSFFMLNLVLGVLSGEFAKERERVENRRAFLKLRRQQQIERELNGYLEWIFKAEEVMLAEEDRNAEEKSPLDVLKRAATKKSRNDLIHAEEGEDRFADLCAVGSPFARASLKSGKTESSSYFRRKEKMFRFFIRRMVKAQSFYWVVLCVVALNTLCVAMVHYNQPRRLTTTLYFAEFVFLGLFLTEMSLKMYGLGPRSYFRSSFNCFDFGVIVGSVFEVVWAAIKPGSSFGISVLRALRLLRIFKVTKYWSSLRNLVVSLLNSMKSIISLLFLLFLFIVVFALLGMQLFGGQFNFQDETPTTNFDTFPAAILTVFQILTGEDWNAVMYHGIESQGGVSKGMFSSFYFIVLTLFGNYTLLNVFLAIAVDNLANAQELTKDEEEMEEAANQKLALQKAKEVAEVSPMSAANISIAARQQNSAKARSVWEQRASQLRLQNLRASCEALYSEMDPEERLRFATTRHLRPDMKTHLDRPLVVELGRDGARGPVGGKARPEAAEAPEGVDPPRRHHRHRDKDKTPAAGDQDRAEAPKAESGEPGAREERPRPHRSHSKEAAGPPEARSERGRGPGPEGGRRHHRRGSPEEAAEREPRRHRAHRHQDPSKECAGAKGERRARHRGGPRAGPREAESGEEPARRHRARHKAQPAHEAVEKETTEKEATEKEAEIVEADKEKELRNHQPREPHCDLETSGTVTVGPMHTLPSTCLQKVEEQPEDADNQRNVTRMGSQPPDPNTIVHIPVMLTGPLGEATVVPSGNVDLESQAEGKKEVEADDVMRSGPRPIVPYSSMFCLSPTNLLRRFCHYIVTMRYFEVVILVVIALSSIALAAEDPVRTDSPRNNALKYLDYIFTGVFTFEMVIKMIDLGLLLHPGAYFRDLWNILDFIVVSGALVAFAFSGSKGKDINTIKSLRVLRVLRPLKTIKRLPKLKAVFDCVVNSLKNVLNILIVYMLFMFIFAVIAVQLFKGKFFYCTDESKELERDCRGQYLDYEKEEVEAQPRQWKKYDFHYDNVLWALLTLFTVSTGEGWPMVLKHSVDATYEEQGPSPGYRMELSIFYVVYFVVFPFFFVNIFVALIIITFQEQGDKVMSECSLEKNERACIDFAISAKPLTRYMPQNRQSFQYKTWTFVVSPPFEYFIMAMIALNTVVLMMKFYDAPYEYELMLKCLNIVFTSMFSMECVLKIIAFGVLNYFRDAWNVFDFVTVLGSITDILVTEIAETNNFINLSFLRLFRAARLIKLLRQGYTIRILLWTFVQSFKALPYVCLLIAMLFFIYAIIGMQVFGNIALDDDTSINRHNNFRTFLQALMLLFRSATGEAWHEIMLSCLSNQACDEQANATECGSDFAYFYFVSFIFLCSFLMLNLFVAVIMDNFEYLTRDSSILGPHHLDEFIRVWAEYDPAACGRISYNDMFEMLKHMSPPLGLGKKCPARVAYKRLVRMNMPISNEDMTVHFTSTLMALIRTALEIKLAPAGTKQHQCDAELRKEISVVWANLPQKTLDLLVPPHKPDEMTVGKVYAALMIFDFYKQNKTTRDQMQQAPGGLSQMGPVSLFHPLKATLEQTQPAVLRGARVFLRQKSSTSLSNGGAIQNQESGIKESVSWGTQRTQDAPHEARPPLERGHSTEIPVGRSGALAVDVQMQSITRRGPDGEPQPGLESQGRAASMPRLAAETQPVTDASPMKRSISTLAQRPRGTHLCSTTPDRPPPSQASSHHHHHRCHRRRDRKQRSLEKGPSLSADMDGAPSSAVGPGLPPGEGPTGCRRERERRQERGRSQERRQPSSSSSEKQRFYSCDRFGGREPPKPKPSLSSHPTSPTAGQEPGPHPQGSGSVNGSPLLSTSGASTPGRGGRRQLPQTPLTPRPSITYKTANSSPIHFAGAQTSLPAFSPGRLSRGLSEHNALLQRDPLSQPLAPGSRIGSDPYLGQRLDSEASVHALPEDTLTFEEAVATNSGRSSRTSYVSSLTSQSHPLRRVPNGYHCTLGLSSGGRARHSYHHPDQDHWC
Target sequence in this assay (as listed by the source partner): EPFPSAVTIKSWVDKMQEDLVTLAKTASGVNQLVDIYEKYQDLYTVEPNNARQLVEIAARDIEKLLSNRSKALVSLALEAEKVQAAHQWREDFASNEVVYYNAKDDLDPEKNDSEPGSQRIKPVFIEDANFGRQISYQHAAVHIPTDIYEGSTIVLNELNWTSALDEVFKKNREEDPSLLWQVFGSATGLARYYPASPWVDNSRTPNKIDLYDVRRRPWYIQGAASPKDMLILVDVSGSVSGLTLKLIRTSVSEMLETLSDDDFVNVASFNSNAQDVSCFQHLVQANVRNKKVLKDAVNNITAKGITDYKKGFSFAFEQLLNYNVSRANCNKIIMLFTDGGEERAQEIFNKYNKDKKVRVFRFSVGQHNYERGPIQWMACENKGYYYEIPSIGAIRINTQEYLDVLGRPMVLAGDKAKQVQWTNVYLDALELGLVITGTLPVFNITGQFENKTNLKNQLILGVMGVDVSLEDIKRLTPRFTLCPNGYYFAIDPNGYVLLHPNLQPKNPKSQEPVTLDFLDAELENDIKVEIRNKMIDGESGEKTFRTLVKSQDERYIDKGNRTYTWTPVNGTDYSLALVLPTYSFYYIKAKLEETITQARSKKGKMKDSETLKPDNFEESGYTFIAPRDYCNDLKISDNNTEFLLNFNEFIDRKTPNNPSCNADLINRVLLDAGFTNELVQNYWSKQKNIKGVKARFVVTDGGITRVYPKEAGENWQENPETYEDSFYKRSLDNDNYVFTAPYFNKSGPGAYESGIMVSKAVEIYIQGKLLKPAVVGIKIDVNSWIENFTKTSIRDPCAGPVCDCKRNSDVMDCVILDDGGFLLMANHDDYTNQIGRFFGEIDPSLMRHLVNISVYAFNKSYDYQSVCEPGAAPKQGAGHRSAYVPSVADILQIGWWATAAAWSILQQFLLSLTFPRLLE
Target sequence in this assay (as listed by the source partner): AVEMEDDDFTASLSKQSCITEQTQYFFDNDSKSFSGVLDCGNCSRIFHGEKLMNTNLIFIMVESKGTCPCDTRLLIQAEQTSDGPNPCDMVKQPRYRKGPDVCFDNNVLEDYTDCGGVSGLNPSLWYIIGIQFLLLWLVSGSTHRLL
Target sequence in this assay (as listed by the source partner): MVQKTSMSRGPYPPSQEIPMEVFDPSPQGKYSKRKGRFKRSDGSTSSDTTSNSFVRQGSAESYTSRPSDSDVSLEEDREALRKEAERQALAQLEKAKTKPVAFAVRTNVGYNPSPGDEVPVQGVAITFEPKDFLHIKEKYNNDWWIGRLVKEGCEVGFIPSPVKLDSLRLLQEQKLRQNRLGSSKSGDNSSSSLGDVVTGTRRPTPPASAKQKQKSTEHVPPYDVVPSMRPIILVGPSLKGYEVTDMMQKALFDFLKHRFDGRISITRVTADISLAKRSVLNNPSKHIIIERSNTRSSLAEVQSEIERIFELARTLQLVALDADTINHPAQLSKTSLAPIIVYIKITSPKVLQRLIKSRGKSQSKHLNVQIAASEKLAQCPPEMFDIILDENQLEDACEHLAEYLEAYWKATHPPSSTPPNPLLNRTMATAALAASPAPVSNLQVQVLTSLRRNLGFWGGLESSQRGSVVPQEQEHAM

[2] = biological target: T2, α1B-1, α2b and β1-2 subunits (Homo sapiens, UniProt Q00975, Y99N); type: binding
T2 construct: contains, in pcDNA1, a full-length coding region encoding α1B-1; expressed in transfected cells; host or cells: HEK293 cells, transient

[3] = test system: cells transfected with only β-galactosidase-encoding DNA or α2bβ-encoding DNA
[4] = test system: untransfected HEK293 cells
[5] = test system: calcium channels containing α1E subunits; type: cell-based, human
[6] = test system: untransfected HEK 293 cells; experiment: whole-cell patch clamp, untransfected HEK 293 cells; type: cell-based, human; conditions: with or without cAMP or forskolin
[7] = test system: human neuronal calcium channel α2 and β1 subunits; experiment: two-electrode voltage clamp, oöcytes injected with α2 and β1 transcripts; conditions: n=11
[8] = biological target: human neuronal calcium channel α1D and β1 subunits (Homo sapiens, UniProt Q01668, S1346F/Y1433H); experiment: two-electrode voltage clamp, oöcytes injected with α1D and β1 transcripts; conditions: two of four oöcytes; compared with α1D, α2, β1 oöcytes
[9] = biological target: human neuronal calcium channel α1D and α2 subunits (Homo sapiens, UniProt Q01668, S1346F/Y1433H); experiment: two-electrode voltage clamp, oöcytes injected with α1D and α2 transcripts; conditions: 15-30 nA currents; holding potential −90 mV
[10] = biological target: T1, α1B-1α2bβ1-2; type: binding
Target sequence in this assay (Q00975 whole entry Y99N): as the sequence (Q00975 whole entry Y99N) above

[11] = biological target: T3, α1B-1α2bβ1-3 (Homo sapiens, UniProt Q00975, Y99N); type: binding
T3 construct: contains, in pcDNA1, a full-length coding region encoding α1B-1; expressed in transfected cells; host or cells: HEK293 cells, transient

[12] = biological target: T4, α1B-1β1-2 (Homo sapiens, UniProt Q00975, Y99N); type: binding
T4 construct: contains, in pcDNA1, a full-length coding region encoding α1B-1; expressed in transfected cells; host or cells: HEK293 cells, transient

[13] = biological target: T5, α1B-1β1-3 (Homo sapiens, UniProt Q00975, Y99N); type: binding
T5 construct: contains, in pcDNA1, a full-length coding region encoding α1B-1; expressed in transfected cells; host or cells: HEK293 cells, transient

[14] = biological target: T6, α1B-1α2b (Homo sapiens, UniProt Q00975, Y99N); type: binding
T6 construct: contains, in pcDNA1, a full-length coding region encoding α1B-1; expressed in transfected cells; host or cells: HEK293 cells, transient

[15] = biological target: T7, α1B-1 (Homo sapiens, UniProt Q00975, Y99N); type: binding
T7 construct: contains, in pcDNA1, a full-length coding region encoding α1B-1; expressed in transfected cells; host or cells: HEK293 cells, transient

[16] = biological target: T8, α1B-2α2bβ1-2 (Homo sapiens, UniProt Q00975, L2215R/Y99N); type: binding
T8 construct: Full-length DNA clones and corresponding RNA transcripts, encoding α1, including splice variants of α1A, α1D, α1B; expressed in transfected cells; host or cells: HEK293 cells, transient

[17] = biological target: T9, α1B-2α2bβ1-3 (Homo sapiens, UniProt Q00975, L2215R/Y99N); type: binding
T9 construct: Full-length DNA clones and corresponding RNA transcripts, encoding α1, including splice variants of α1A, α1D, α1B; expressed in transfected cells; host or cells: HEK293 cells, transient

[18] = biological target: T10, α1B-2β1-2 (Homo sapiens, UniProt Q00975, L2215R/Y99N); type: binding
T10 construct: Full-length DNA clones and corresponding RNA transcripts, encoding α1, including splice variants of α1A, α1D, α1B; expressed in transfected cells; host or cells: HEK293 cells, transient

[19] = biological target: T11, α1B-2β1-3 (Homo sapiens, UniProt Q00975, L2215R/Y99N); type: binding
T11 construct: Full-length DNA clones and corresponding RNA transcripts, encoding α1, including splice variants of α1A, α1D, α1B; expressed in transfected cells; host or cells: HEK293 cells, transient

[20] = biological target: T12, α1B-2α2b (Homo sapiens, UniProt Q00975, L2215R/Y99N); type: binding
T12 construct: Full-length DNA clones and corresponding RNA transcripts, encoding α1, including splice variants of α1A, α1D, α1B; expressed in transfected cells; host or cells: HEK293 cells, transient

[21] = biological target: T13, α1B-2 (Homo sapiens, UniProt Q00975, L2215R/Y99N); type: binding
T13 construct: Full-length DNA clones and corresponding RNA transcripts, encoding α1, including splice variants of α1A, α1D, α1B; expressed in transfected cells; host or cells: HEK293 cells, transient

[22] = test system: subunit combinations lacking either the α1B-1 or the α1B-2 subunit

T7 sequence (Q00975 whole entry Y99N): as above
T6 sequence (Q00975 whole entry Y99N): as above
T2 sequence (Q00975 whole entry Y99N): as above

Compound: [Cd] [cadmium]
- blockage of IBa ([1]; 50 μM): rapid, complete, and reversible

Compound: C[C@@H](O)[C@@H]1NC(=O)[C@H](Cc2ccc(O)cc2)NC(=O)[C@@H]2C[C@@H](O)CN2C(=O)[C@H](CC(N)=O)NC(=O)[C@@H]2CSSC[C@@H]3NC(=O)[C@H](CO)NC(=O)[C@H](CO)NC(=O)CNC(=O)[C@@H]4C[C@@H](O)CN4C(=O)[C@H](CO)NC(=O)[C@H](CCCCN)NC(=O)[C@@H](N)CSSC[C@H](NC(=O)[C@H](CSSC[C@@H](C(=O)N[C@@H](Cc4ccc(O)cc4)C(N)=O)NC(=O)[C@H](CCCNC(=N)N)NC(=O)[C@H](CCCCN)NC1=O)NC(=O)[C@H](CC(N)=O)NC(=O)[C@H](Cc1ccc(O)cc1)NC(=O)[C@H](CO)NC(=O)[C@H]([C@@H](C)O)NC(=O)[C@@H]1C[C@@H](O)CN1C(=O)[C@H](CO)NC3=O)C(=O)N[C@@H](CCCNC(=N)N)C(=O)N[C@@H](CO)C(=O)N2 [ωCgTX]
- block of activity [1]: blocked the activity completely
- block of channels [1]: blocked irreversibly
- time to complete block [1]: ≤ 2 min
- binding capacity (Bmax) [2]: 28,710±11,950 sites per cell
- specific binding [3]: no specific binding
- detectable ω-CgTx GVIA binding sites [4]: do not express detectable

Compound: ω-Aga-IVA: funnel web spider toxin that blocks certain high voltage activated channels (KKKCIAKDYGRCKWGGTPCCRGRGCICSIMGTNCECKPRLIMEGLGLA)
- sensitivity of channels containing α1E subunits [5]: sensitive

Compound: COC(=O)C1=C(C)NC(C)=C([N+](=O)[O-])C1c1ccccc1C(F)(F)F (stereo not drawn) [Bay K 8644]
- effects of Bay K 8644 on currents [6]: No such effects
- effect on IBa ([1]; n=4): no discernable effect
- sensitivity of inward barium currents to Bay K 8644 [7]: insensitive
- sensitivity of Ba2+ currents to Bay K 8644 [8]: similar
- response of barium currents to Bay K 8644 [9]: little or no response

Compound: C[C@@H](O)[C@@H]1NC(=O)[C@H](Cc2ccc(O)cc2)NC(=O)[C@@H]2C[C@@H](O)CN2C(=O)[C@H](CC(N)=O)NC(=O)[C@@H]2CSSC[C@@H]3NC(=O)[C@H](CO)NC(=O)[C@H](CO)NC(=O)CNC(=O)[C@@H]4C[C@@H](O)CN4C(=O)[C@H](CO)NC(=O)[C@H](CCCCN)NC(=O)[C@@H](N)CSSC[C@H](NC(=O)[C@H](CSSC[C@@H](C(=O)N[C@@H](Cc4ccc(O)cc4)C(N)=O)NC(=O)[C@H](CCCNC(=N)N)NC(=O)[C@H](CCCCN)NC1=O)NC(=O)[C@H](CC(N)=O)NC(=O)[C@H](Cc1ccc(O)cc1)NC(=O)[C@H](CO)NC(=O)[C@H]([C@@H](C)O)NC(=O)[C@@H]1C[C@@H](O)CN1C(=O)[C@H](CO)NC3=O)C(=O)N[C@@H](CCCNC(=N)N)C(=O)N[C@@H](CO)C(=O)N2 [125I-ω-CgTx GVIA]
- Bmax (sites/cell) [10]: 45,324 ± 15,606 sites/cell
- Bmax (sites/cell) [11]: 91,004 ± 37,654 sites/cell
- Bmax (sites/cell) [12]: 5,756 ± 2,163 sites/cell
- Bmax (sites/cell) [13]: 8,729 ± 2,980 sites/cell
- Bmax (sites/cell) [14]: 2,256 ± 356 sites/cell
- Bmax (sites/cell) [15]: 757 ± 128 sites/cell
- number of binding sites [15]: approximately 750 binding sites/cell
- Bmax (sites/cell) [16]: 19,371 ± 3,798 sites/cell
- Bmax (sites/cell) [17]: 37,652 ± 8,129 sites/cell
- Bmax (sites/cell) [18]: 2,126 ± 412 sites/cell
- Bmax (sites/cell) [19]: 2,944 ± 1,168 sites/cell
- Kd (pM) [20]: too low for reliable Scatchard analysis
- Kd (pM) [21]: too low for reliable Scatchard analysis
- detectable 125I-ω-CgTx GVIA binding [22]: ≤ 600 sites/cell

Source: patent US7414110B2, “Human calcium channel compositions and methods” (Merck & Co., Inc., priority 1990, dated 2008)
